Tested on: adult rat hippocampal neurons
Assay: Whole-cell patch-clamp electrophysiology of cultured adult hippocampal neurons (electrical recovery)
Assay type: cell-based
Settings: cycloheximide during incubation of confluent neurons with 25 μM glutamate
Experimental: Whole-cell, patch-clamp recordings were performed at room temperature. pH was adjusted to 7.3 with HEPES acid and base, ion concentrations with NaCl to approximately 130 mM, and osmolarity of 290-300 mOsm. Cells were visualized on the stage with a Zeiss Axioscope, 2 FS Plus, upright microscope in maintenance culture medium. Patch pipettes (4-8 M′Ω) were filled with intracellular solution (K-gluconate 140 mM, EGTA 1 mM, MgCl2 2 mM, Na2ATP 5 mM, HEPES 10 mM; pH 7.2), osmolarity approximately 260 mOsm. Voltage clamp and current clamp experiments were performed with a Multiclamp 700A (MDS Analytical Devices) amplifier. Signals were filtered at 3 kHz and digitized at 20 kHz with an Axon Digidata 1322A interface. Data recordings and analysis were performed with pClamp software. Whole-cell capacitance and series resistance were compensated electronically. Only cells with access resistance less than 22 M′Ω were analyzed. Inward currents that had the characteristics of fast sodium currents, and outward currents that had the characteristics of potassium currents were measured in voltage clamp mode using voltage steps of 10 mV from a −70 mV holding potential. Action potentials were measured with 1 s depolarizing current injections to elicit action potentials from a −70 mV holding potential. Cells were morphologically selected for electrophysiological characterization. […]

## C[C@@H]1C[C@@H]([C@H](O)CC2CC(=O)NC(=O)C2)C(=O)[C@@H](C)C1 [cycloheximide]
  glutamate-induced improvements in neuronal electrical activity: completely blocked
